# Experiments:
# [1] = test system: P388/ADR cell lines (overexpress the multidrug resistance pump MDR-1); assay: Multidrug resistant cell assay, cell viability by ATP-lite; assay type: cell-based, murine
# From the text: Cytotoxicity of compounds in multidrug resistant cells can be determined by administering compounds to cell lines that overexpress the multidrug resistance pump MDR-1 and determining the viability of the cell lines. P388/ADR cell lines are known to overexpress the multidrug resistance pump MDR-1 (also known as P-glycoprotein-1; Pgp-1).
# P388/ADR cell lines are obtained from American Type Culture Collection (Manassas, Va.) and maintained in RPMI-1640 media supplemented with 10% FCS, 10 units/mL penicillin and streptomycin, 2 mM Glutamax and 1 mM sodium pyruvate (Invitrogen Corporation, Carlsbad, Calif.). For compound testing, cells are plated in 96 well dishes at a concentration of 1.5×10^4 cells/well. Cells are allowed to adhere to the plate overnight and then incubated with compounds at final concentrations ranging from 0.13 nM to 10 μM for 72 hours. Cell viability is then assessed using the ATP-lite reagent (Perkin Elmer, Foster City, Calif.). Plates are read on a Wallac Topcount luminescence reader (Perkin Elmer, Foster City, Calif.) and the results graphed in Prism software (Graphpad Software, Inc., San Diego, Calif.). Non-linear regression with variable slope analysis is performed to obtain IC50 concentration values.
# [2] = test system: P388 murine leukemia cell line; assay: P388 cytotoxicity, cellular viability by ATP-Lite; assay type: cell-based; conditions: compound concentration required to inhibit growth by 50%, intracellular ATP
# Description: A P388 murine leukemia cell line was obtained from NCI, Frederick, Md. P388 cells were cultured in RPMI-1640 supplemented with 10% fetal bovine serum, 2 mM Glutamax, 1 mM sodium pyruvate, 0.1 mM non-essential amino acids and 10 mM HEPES. Cells were grown at 37° C. in a humidified 5% CO2 atmosphere. Exponentially growing P388 cells were plated at 5,000 cells/well in a 96-well flat-bottomed microtiter plate (Corning, Costar #3595). […] Cellular viability was determined 72 hours later by measuring intracellular ATP with ATP-Lite assay system. The effect of compounds on cell viability was calculated by comparing the ATP levels of cells exposed to test compound with those of cells exposed to DMSO. A semi-log plot of relative ATP levels versus compound concentration was used to calculate the compound concentration required to inhibit growth by 50% (IC50). Data was analyzed by Prism software (GraphPad; San Diego, Calif.) by fitting it to a sigmoidal dose response curve.
# [3] = Mus musculus, 72 h, multidrug resistant cells overexpressing MDR-1
# [4] = multidrug resistant cells overexpressing MDR-1, 72 hours
SMILES,"IC50 [1, 3] [nM]","IC50 [1, 4] [nM]","IC50 ([2]; Mus musculus, P388, 72 h) [nM]",IC50 ([2]; 72 hours) [nM]
"COCCOCCOC(=O)OCCNc1nc(N(C)c2ccc(OC)cc2)c2ccccc2n1 [Example 8, Carbonic acid 2-(2-methoxy-ethoxy)-ethyl ester 2-{4-[(4-methoxy-phenyl)-methyl-amino]-quinazolin-2-ylamino}-ethyl ester]",30,–,25,–
"CCOCCOCCOCCOc1nc(N(C)c2ccc(OC)cc2)c2ccccc2n1 [Example 7, (2-{2-[2-(2-Ethoxy-ethoxy)-ethoxy]-ethoxy}-quinazolin-4-yl)-(4-methoxy-phenyl)-methyl-amine]",520,–,1400,–
"COc1ccc(N(C)c2nc(N3CCNCC3)nc3ccccc23)cc1 [Example 9, (4-Methoxy-phenyl)-methyl-(2-piperazin-1-yl-quinazolin-4-yl)-amine]",3200,–,2600,–
"COc1ccc(N(C)c2nc(CNS(=O)(=O)c3ccc(OC)cc3)nc3ccccc23)cc1 [Example 45, 4-Methoxy-N-{4-[(4-methoxy-phenyl)-methyl-amino]-quinazolin-2-ylmethyl}-benzenesulfonamide]",1800,–,1700,–
"CNC(=O)NCCNc1nc(N(C)c2ccc(OC)cc2)c2cc(OC)ccc2n1 [Example 37, 1-(2-{6-Methoxy-4-[(4-methoxy-phenyl)-methyl-amino]-quinazolin-2-ylamino}-ethyl)-3-methyl-urea]",6600,–,4700,–
"COC(=O)NCCNc1nc(N(C)c2ccc(OC)cc2)c2cc(C)ccc2n1 [Example 30, (2-{4-[(4-Methoxy-phenyl)-methyl-amino]-6-methyl-quinazolin-2-ylamino}-ethyl)-carbamic acid methyl ester]",160,–,85,–
"COc1ccc(N(C)c2nc(N[C@@H](CO)c3ccccc3)nc3ccccc23)cc1 [Example 23, (R)-2-{4-[(4-Methoxy-phenyl)-methyl-amino]-quinazolin-2-ylamino}-2-phenyl-ethanol]",3300,–,4600,–
"COc1ccc(N(C)c2nc(NCCOC(=O)[C@H](N)CCCCN)nc3ccccc23)cc1 [Example 15, (R)-2,6-Diamino-hexanoic acid 2-{4-[(4-methoxy-phenyl)-methyl-amino]-quinazolin-2-ylamino}-ethyl ester]",33,22,11,15
"COc1ccc(N(C)c2nc(OCCN3CCN(CCO)CC3)nc3ccccc23)cc1 [Example 5, 2-[4-(2-{4-[(4-Methoxy-phenyl)-methyl-amino]-quinazolin-2-yloxy}-ethyl)-piperazin-1-yl]-ethanol]",–,–,3600,–
"COc1ccc(N(C)c2nc(NCCNC(N)=O)nc3ccc(OC)cc23)cc1 [Example 22, (2-{6-Methoxy-4-[(4-methoxy-phenyl)-methyl-amino]-quinazolin-2-ylamino}-ethyl)-urea]",–,–,9300,–
"COc1ccc(N(C)c2nc(NCC(O)CN)nc3ccccc23)cc1 (centres unmarked) [Example 44, 1-Amino-3-{4-[(4-methoxy-phenyl)-methyl-amino]-quinazolin-2-ylamino}-propan-2-ol]",57,–,37,–
"COC(=O)NCCNc1nc(N(C)c2ccc(OC)cc2)c2cc(OC)ccc2n1 [Example 26, (2-{6-Methoxy-4-[(4-methoxy-phenyl)-methyl-amino]-quinazolin-2-ylamino}-ethyl)-carbamic acid methyl ester]",7400,–,7200,–
"COc1ccc(N(C)c2nc(CNC(=O)[C@@H](C)NC(=O)OC(C)(C)C)nc3ccccc23)cc1 [Example 53, [(R)-1-({4-[(4-Methoxy-phenyl)-methyl-amino]-quinazolin-2-ylmethyl}-carbamoyl)-ethyl]-carbamic acid tert-butyl ester]",680,–,457,–
"COc1ccc(N(C)c2nc(CNC(=O)Oc3ccccc3)nc3ccc(F)cc23)cc1 [Example 43, {6-Fluoro-4-[(4-methoxy-phenyl)-methyl-amino]-quinazolin-2-ylmethyl}-carbamic acid phenyl ester]",5.7,–,7.2,–
"COc1ccc(N(C)c2nc(CNC(=O)[C@H](C)NC(=O)OC(C)(C)C)nc3ccccc23)cc1 [Example 50, [(S)-1-({4-[(4-Methoxy-phenyl)-methyl-amino]-quinazolin-2-ylmethyl}-carbamoyl)-ethyl]-carbamic acid tent-butyl ester]",190,–,180,–
"COc1ccc(N(C)c2nc(N(CCNC(C)=O)C(C)=O)nc3ccccc23)cc1 [Example 39, N-[2-(Acetyl-{4-[(4-methoxy-phenyl)-methyl-amino]-quinazolin-2-yl}-amino)-ethyl]-acetamide]",–,–,3800,–

# Further lines, with some results ahead:
"IC50 [1, 3] [nM]","IC50 [1, 4] [nM]",SMILES,"IC50 ([2]; Mus musculus, P388, 72 h) [nM]",IC50 ([2]; 72 hours) [nM]
5300,–,"COc1ccc(N(C)c2nc(NCCNC(=O)CN)nc3ccccc23)cc1 [Example 41, 2-Amino-N-(2-{4-[(4-methoxy-phenyl)-methyl-amino]-quinazolin-2-ylamino}-ethyl)-acetamide]",1700,–
27,–,"COc1ccc(N(C)c2nc(CNC(=O)OCc3ccccc3)nc3ccccc23)cc1 [Example 47, {4-[(4-Methoxy-phenyl)-methyl-amino]-quinazolin-2-ylmethyl}-carbamic acid benzyl ester]",23,–
580,–,"COCCOCCOc1nc(N(C)c2ccc(OC)cc2)c2ccccc2n1 [Example 1, {2-[2-(2-Methoxy-ethoxy)-ethoxy]-quinazolin-4-yl}-(4-methoxy-phenyl)-methyl-amine]",490,–
300,–,"CCOC(=O)C(Nc1nc(N(C)c2ccc(OC)cc2)c2ccccc2n1)C(C)C (centres unmarked) [Example 32, 2-{4-[(4-Methoxy-phenyl)-methyl-amino]-quinazolin-2-ylamino}-3-methyl-butyric acid ethyl ester]",240,–
8500,–,"COc1ccc(N(C)c2nc(NCCNC(=O)OCc3ccccc3)nc3ccc(OC)cc23)cc1 [Example 17, (2-{6-Methoxy-4-[(4-methoxy-phenyl)-methyl-amino]-quinazolin-2-ylamino}-ethyl)-carbamic acid benzyl ester]",4500,3000
880,–,"COc1ccc(N(C)c2nc(NCC(O)CNc3nc(N(C)c4ccc(OC)cc4)c4ccccc4n3)nc3ccccc23)cc1 [Example 42, 1,3-Bis-{4-[(4-methoxy-phenyl)-methyl-amino]-quinazolin-2-ylamino}-propan-2-ol]",680,–
1800,–,"COc1ccc(N(C)c2nc(N[C@@H](CO)Cc3ccccc3)nc3ccccc23)cc1 [Example 25, (R)-2-{4-[(4-Methoxy-phenyl)-methyl-amino]-quinazolin-2-ylamino}-3-phenyl-propan-1-ol]",1800,–
83,–,"COc1ccc(N(C)c2nc(NCCCN(C)c3nc(N(C)c4ccc(OC)cc4)c4ccccc4n3)nc3ccccc23)cc1 [Example 48, 3-{4-[(4-Methoxy-phenyl)-methyl-amino]-quinazolin-2-ylamino}-1-({4-[(4-methoxy-phenyl)-methyl-amino]-quinazolin-2-yl}-methyl-amino)-propane]",70,–
18,–,"COc1ccc(N(C)c2nc(NCCOC(=O)[C@@H](N)CC(N)=O)nc3ccccc23)cc1 [Example 33, (S)-2-Amino-succinamic acid 2-{4-[(4-methoxy-phenyl)-methyl-amino]-quinazolin-2-ylamino}-ethyl ester]",17,–
53,–,"COC(=O)NCCNc1nc(N(C)c2ccc(OC)cc2)c2ccccc2n1 [Example 38, (2-{4-[(4-Methoxy-phenyl)-methyl-amino]-quinazolin-2-ylamino}-ethyl)-carbamic acid methyl ester]",19,–
190,150,"COC(=O)NCCNc1nc(N(C)c2ccc(OC)c(OC)c2)c2ccccc2n1 [Example 21, (2-{4-[(3,4-Dimethoxy-phenyl)-methyl-amino]-quinazolin-2-ylamino}-ethyl)-carbamic acid methyl ester]",120,64
2500,1400,"COc1ccc(N(C)c2nc(NCCNC(C)=O)nc3ccc(C)cc23)cc1 [Example 18, N-(2-{4-[(4-Methoxy-phenyl)-methyl-amino]-6-methyl-quinazolin-2-ylamino}-ethyl)-acetamide]",–,–
380,–,"COc1ccc(N(C)c2nc(NCCOP(=O)(OC(C)(C)C)OC(C)(C)C)nc3ccccc23)cc1 [Example 10, Phosphoric acid di-tent-butyl ester 2-{4-[(4-methoxy-phenyl)-methyl-amino]-quinazolin-2-ylamino}-ethyl ester]",–,–

# Source: patent US20100068197A1, “PHARMACEUTICAL COMPOUNDS AS INHIBITORS OF CELL PROLIFERATION AND THE USE THEREOF” (Myriad Pharmaceuticals, Inc., priority 2008, published 2010)
